Paper PMC3600154 (Nature, 2013)

Biological target: mouse CALHM1 (Mus musculus, UniProt D3Z291)
Settings: permeant released through the channel; pH 7.4

Chain of mouse CALHM1 (D3Z291 whole entry): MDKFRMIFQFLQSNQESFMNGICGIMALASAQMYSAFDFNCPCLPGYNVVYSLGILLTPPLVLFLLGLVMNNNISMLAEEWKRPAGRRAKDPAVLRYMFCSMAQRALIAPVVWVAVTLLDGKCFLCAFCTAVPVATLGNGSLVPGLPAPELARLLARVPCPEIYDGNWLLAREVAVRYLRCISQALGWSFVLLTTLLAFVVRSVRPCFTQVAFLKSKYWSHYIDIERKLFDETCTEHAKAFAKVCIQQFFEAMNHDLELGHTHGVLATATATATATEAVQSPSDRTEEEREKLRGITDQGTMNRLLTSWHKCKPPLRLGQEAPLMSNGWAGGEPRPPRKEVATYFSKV

## Nc1ncnc2c1ncn2[C@@H]1O[C@H](COP(=O)(O)OP(=O)(O)OP(=O)(O)O)[C@@H](O)[C@H]1O [ATP, adenosine 5′-triphosphate]
  luciferin-luciferase ATP release assay, transfected HeLa cells: Expression of mouse CALHM1 conferred ATP release with similar properties
